{"source": "patent US20070135470A1", "about": "“Utilization of vinpocetine to avoid complications in particular those associated to hearing which occur with epilepsy, and treatment thereof” (UNIVERSIDAD NACIONAL AUTONOMA DE MEXICO, priority 2003, published 2007)", "key": {"humans": {"system": "humans", "settings": "doses as high as 60 mg/day; Hindmarch et al. 1991; cited from earlier work"}, "presynaptic Na+ channels": {"system": "presynaptic Na+ channels", "settings": "brain isolated nerve endings; Sitges and Nekrassov 1999; Trejo et al. 2001; cited from earlier work"}, "[1]": {"system": "hearing loss induced by 4-AP in guinea pigs", "assay": "ABR (auditory) threshold in 4-AP-induced epilepsy", "format": "in vivo, guinea pig", "method": "(§1) Experiments were performed in pigmented adult male guinea pigs initially weighing 349±38 g. ABRs recordings were used to evaluate the hearing status of each animal and EEG recordings to evaluate changes in cortical excitability. The ABR and EEG recordings were obtained following a method that we have previously reported (Nekrassov and Sitges, 2003). The Institutional Animal Use and Care Committee approved all experimental procedures.\n(§2) Three types of recordings were performed in the anaesthetized animals, namely the ABR recordings elicited by a stimulus of high intensity (100 dB), the ABR recordings for determination of the auditory threshold and the EEG recordings.\n(§3) Determination of ABR thresholds. ABR recordings elicited by stimuli of progressively lower intensity (in dB) were used for determining the hearing threshold. Threshold is defined as the lowest stimulus intensity (in dB) at which the P3 wave of the ABR could still be recorded in three consecutive trials.\n(§4) Student's t-test was used for the evaluation of the differences between results obtained before and at the specified times after the injection of the convulsing agents. The criterion for statistical significance for all measures was P≦0.05. All data are expressed as means±standard error of the mean. In figures and tables the symbol * is used for indicating statistic significant differences.\n(§5) Five guinea pigs were entered into the study. One hour after injecting guinea pigs with vehicle (acidified saline used to dissolve vinpocetine) the animals were anaesthetized and a first set of ABR and EEG recordings was taken before the injection (i.p) of the convulsing agent, 4-AP. The animals were injected with 4-AP (2 mg/kg) and about 20 min after injecting 4-AP (ictal period) the EEG recording was taken. Then the other series of ABR and EEG recordings were taken at specific times within the post-ictal period. After two weeks the same series of recordings were repeated but instead vehicle the animals were injected with vinpocetine (2 mg/kg) 1 hour before the injection of 4-AP."}, "[2]": {"system": "epilepsy induced by 4-AP in guinea pigs", "assay": "ABR wave parameters (amplitude, latency) in 4-AP-induced epilepsy", "format": "in vivo, guinea pig", "settings": "100 dB", "method": "as §1, §2\n(§6) Determination of ABR wave parameters. The latency and amplitude of each wave component of the ABR elicited by a stimulus of 100 dB with pure tone frequencies of 4 and 8 kHz was measured in all the ABR recordings obtained under the different experimental conditions at the specified times. The latency of each ABR wave (in ms) refers to the time interval between the onset of the auditory stimulus and the positive peak of the wave. The onset of the stimulus is indicated by the vertical arrow at the bottom of the recordings on FIG. 1. The peak amplitude (in μV) of each wave of the ABR is the difference between the positive peak of the wave and the reference baseline (trace between the stimulus and the appearance of the first ABR wave on FIG. 1).\nas §4, §5"}, "[3]": {"system": "hearing loss induced by PTZ in guinea pigs", "assay": "ABR (auditory) threshold in PTZ-induced epilepsy", "format": "in vivo, guinea pig", "method": "as §1, §2, §3, §4\n(§7) Eight male guinea pigs were entered into this study. PTZ was dissolved in saline and vinpocetine in a saline acidified (with HCl) adjusted to pH 4 (with NaOH). Four hours after injecting guinea pigs with vehicle (acidified saline used to dissolve vinpocetine) the animals were anaesthetized and a first set of ABR and EEG recordings was taken before the injection (i.p) of the convulsing agent, PTZ. The animals were injected with PTZ (100 mg/kg) and about 2 min after injecting PTZ (ictal period) the EEG recording was taken. Then the other series of ABR and EEG recordings were taken at specific times within the post-ictal period. After two weeks the same series of recordings was taken but instead vehicle the animals were injected with vinpocetine (2 mg/kg) 4 hours before the injection of PTZ."}, "[4]": {"system": "epilepsy induced by PTZ in guinea pigs", "assay": "ABR wave parameters (amplitude, latency) in PTZ-induced epilepsy", "format": "in vivo, guinea pig", "settings": "100 dB", "method": "as §1, §2, §6, §4, §7"}, "[5]": {"system": "epileptic cortical activity induced by 4-AP in guinea pigs", "assay": "EEG recordings of cortical activity in 4-AP-induced epilepsy", "format": "in vivo, guinea pig", "settings": "ictal (about 20 min) and post-ictal (30, 60, 80 min) periods; vinpocetine 2 mg/kg 1 h before 4-AP; FIGS. 6, 7", "method": "as §1, §2, §5\nVinpocetine inhibits all the changes induced by 4-AP on the EEG. […] This change on the cortical activity elicited by 4-AP for the ictal period is followed by the post-ictal period characterized by isolated spikes of higher amplitude that appear on the EEG about one hour after the injection of 4-AP. […] The top traces of FIG. 6 show the characteristic EEG recordings taken before the injection of 4-AP in the animals pre-injected with vehicle (a) and in the animals pre-injected with vinpocetine (b). The changes induced by 4-AP on for the ictal period are shown in the second trace on FIG. 6a. In the vinpocetine treated animals 4-AP was unable to induce the ictal activity (second trace on FIG. 6b)."}, "[6]": {"system": "guinea pig treated with amikacin", "settings": "high dose of amikacin; Nekrassov and Sitges 2000; cited from earlier work"}, "[7]": {"settings": "4 kHz, 30 min after 4-AP 2 mg/kg i.p., vinpocetine 2 mg/kg or vehicle 1 h before 4-AP"}, "[8]": {"settings": "4 kHz, 60 min after 4-AP 2 mg/kg i.p., vinpocetine 2 mg/kg or vehicle 1 h before 4-AP"}, "[9]": {"settings": "8 kHz, 30 min after 4-AP 2 mg/kg i.p., vinpocetine 2 mg/kg or vehicle 1 h before 4-AP"}, "[10]": {"settings": "8 kHz, 60 min after 4-AP 2 mg/kg i.p., vinpocetine 2 mg/kg or vehicle 1 h before 4-AP"}, "[11]": {"settings": "4 kHz, 30 min after PTZ 100 mg/kg i.p., vinpocetine 2 mg/kg or vehicle 4 h before PTZ"}, "[12]": {"settings": "4 kHz, 50 min after PTZ 100 mg/kg i.p., vinpocetine 2 mg/kg or vehicle 4 h before PTZ"}, "[13]": {"settings": "4 kHz, before PTZ injection, 4 h after vinpocetine 2 mg/kg, mean±SEM, 8 animals"}, "[14]": {"settings": "8 kHz, 30 min after PTZ 100 mg/kg i.p., vinpocetine 2 mg/kg or vehicle 4 h before PTZ"}, "[15]": {"settings": "8 kHz, 50 min after PTZ 100 mg/kg i.p., vinpocetine 2 mg/kg or vehicle 4 h before PTZ"}, "[16]": {"settings": "8 kHz, before PTZ injection, 4 h after vinpocetine 2 mg/kg, mean±SEM, 8 animals"}}}
{"smiles": "CCOC(=O)C1=C[C@]2(CC)CCCN3CCc4c(n1c1ccccc41)[C@@H]32", "note": "[Vinpocetine, ethyl apovincamine-22-oate]", "values": [{"measurement": "tolerability in humans", "setting": "humans", "result": "well tolerated and without contraindications"}, {"measurement": "neurotransmitter release induced by an increase in presynaptic Na+ channels permeability", "setting": "presynaptic Na+ channels", "result": "selectively inhibits"}, {"measurement": "auditory threshold", "setting": "[1]; [7]", "result": "11.3 ± 1.3", "unit": "dB"}, {"measurement": "auditory threshold", "setting": "[1]; [8]", "result": "11.3 ± 1.3", "unit": "dB"}, {"measurement": "auditory threshold", "setting": "[1]; 4 kHz, before 4-AP injection, 1 h after vinpocetine 2 mg/kg", "result": "13.8 ± 1.3", "unit": "dB"}, {"measurement": "auditory threshold", "setting": "[1]; [9]", "result": "−1.3 ± 2.4", "unit": "dB"}, {"measurement": "auditory threshold", "setting": "[1]; [10]", "result": "0.0 ± 3.5", "unit": "dB"}, {"measurement": "auditory threshold", "setting": "[1]; 8 kHz, before 4-AP injection, 1 h after vinpocetine 2 mg/kg", "result": "2.5 ± 1.4", "unit": "dB"}, {"measurement": "latency of the P4 wave of the ABR", "setting": "[2]; [7]", "result": "3.37 ± 0.06", "unit": "ms"}, {"measurement": "latency of the P4 wave of the ABR", "setting": "[2]; [8]", "result": "3.54 ± 0.11", "unit": "ms"}, {"measurement": "latency of the P4 wave of the ABR", "setting": "[2]; 4 kHz, 80 min after 4-AP 2 mg/kg i.p., vinpocetine 2 mg/kg or vehicle 1 h before 4-AP", "result": "3.56 ± 0.04", "unit": "ms"}, {"measurement": "latency of the P4 wave of the ABR", "setting": "[2]; 4 kHz, 100 min after 4-AP 2 mg/kg i.p., vinpocetine 2 mg/kg or vehicle 1 h before 4-AP", "result": "3.43 ± 0.09", "unit": "ms"}, {"measurement": "latency of the P4 wave of the ABR", "setting": "[2]; 4 kHz, before 4-AP injection, 1 h after vinpocetine 2 mg/kg, 5 animals", "result": "3.45 ± 0.06", "unit": "ms"}, {"measurement": "latency of the P4 wave of the ABR", "setting": "[2]; [9]", "result": "3.55 ± 0.07", "unit": "ms"}, {"measurement": "latency of the P4 wave of the ABR", "setting": "[2]; [10]", "result": "3.45 ± 0.08", "unit": "ms"}, {"measurement": "latency of the P4 wave of the ABR", "setting": "[2]; 8 kHz, 80 min after 4-AP 2 mg/kg i.p., vinpocetine 2 mg/kg or vehicle 1 h before 4-AP", "result": "3.36 ± 0.05", "unit": "ms"}, {"measurement": "latency of the P4 wave of the ABR", "setting": "[2]; 8 kHz, 100 min after 4-AP 2 mg/kg i.p., vinpocetine 2 mg/kg or vehicle 1 h before 4-AP", "result": "3.35 ± 0.07", "unit": "ms"}, {"measurement": "latency of the P4 wave of the ABR", "setting": "[2]; 8 kHz, before 4-AP injection, 1 h after vinpocetine 2 mg/kg, 5 animals", "result": "3.48 ± 0.04", "unit": "ms"}, {"measurement": "progressive increase in the amplitude of the P3 wave of the ABR produced by 4-AP", "setting": "[2]; 8 kHz, vinpocetine 2 mg/kg 1 h before 4-AP, FIG. 5a,b", "result": "eliminated"}, {"measurement": "reduction in P4 amplitude produced by 4-AP", "setting": "[2]; 8 kHz, vinpocetine 2 mg/kg 1 h before 4-AP, FIG. 5c,d", "result": "markedly reduced"}, {"measurement": "auditory threshold", "setting": "[3]; [11]", "result": "18 ± 1.2", "unit": "dB"}, {"measurement": "auditory threshold", "setting": "[3]; [12]", "result": "18 ± 1.2", "unit": "dB"}, {"measurement": "auditory threshold", "setting": "[3]; [13]", "result": "20 ± 1.6", "unit": "dB"}, {"measurement": "auditory threshold", "setting": "[3]; [14]", "result": "6.0 ± 1.0", "unit": "dB"}, {"measurement": "auditory threshold", "setting": "[3]; [15]", "result": "6.0 ± 1.0", "unit": "dB"}, {"measurement": "auditory threshold", "setting": "[3]; [16]", "result": "6.0 ± 1.0", "unit": "dB"}, {"measurement": "effect on the increase in latencies of the ABR waves P2, P3 and P4 produced by PTZ", "setting": "[4]; 4 and 8 kHz, vinpocetine 2 mg/kg 4 h before PTZ, FIG. 2", "result": "inhibits the increase"}, {"measurement": "P4 wave peak amplitude of the ABR", "setting": "[4]; 4 kHz, 10 min after PTZ 100 mg/kg i.p., vinpocetine 2 mg/kg or vehicle 4 h before PTZ", "result": "2.55 ± 0.3", "unit": "μV"}, {"measurement": "P4 wave peak amplitude of the ABR", "setting": "[4]; 4 kHz, 20 min after PTZ 100 mg/kg i.p., vinpocetine 2 mg/kg or vehicle 4 h before PTZ", "result": "2.52 ± 0.2", "unit": "μV"}, {"measurement": "P4 wave peak amplitude of the ABR", "setting": "[4]; [11]", "result": "2.55 ± 0.2", "unit": "μV"}, {"measurement": "P4 wave peak amplitude of the ABR", "setting": "[4]; [12]", "result": "2.52 ± 0.2", "unit": "μV"}, {"measurement": "P4 wave peak amplitude of the ABR", "setting": "[4]; [13]", "result": "2.82 ± 0.3", "unit": "μV"}, {"measurement": "P4 wave peak amplitude of the ABR", "setting": "[4]; 8 kHz, 10 min after PTZ 100 mg/kg i.p., vinpocetine 2 mg/kg or vehicle 4 h before PTZ", "result": "2.56 ± 0.1", "unit": "μV"}, {"measurement": "P4 wave peak amplitude of the ABR", "setting": "[4]; 8 kHz, 20 min after PTZ 100 mg/kg i.p., vinpocetine 2 mg/kg or vehicle 4 h before PTZ", "result": "2.71 ± 0.2", "unit": "μV"}, {"measurement": "P4 wave peak amplitude of the ABR", "setting": "[4]; [14]", "result": "2.55 ± 0.2", "unit": "μV"}, {"measurement": "P4 wave peak amplitude of the ABR", "setting": "[4]; [15]", "result": "2.56 ± 0.1", "unit": "μV"}, {"measurement": "P4 wave peak amplitude of the ABR", "setting": "[4]; [16]", "result": "2.69 ± 0.1", "unit": "μV"}, {"measurement": "effect on changes on the cortical activity (EEG) induced by 4-AP", "setting": "[5]", "result": "completely prevents"}, {"measurement": "protective action over changes in ABR waves, hearing loss and mortality induced by amikacin", "setting": "[6]", "result": "long term (more than half a year) protective action"}]}
